Assay results reported in publication PMC12248599, “Exploring the Bioavailability of Red Grape Skin Extract Polyphenols: A Caco-2 Cell Model Study” (Foods, 2025).
Values joined by “and” are separate entries in the source; they are usually repeats but may differ in a detail not shown here. Equal values may be shown once. Marks after values point to notes of the source that are not given here.

How the values were obtained:
[1] = system: Caco-2 cell monolayer; experiment: Caco-2 monolayer transport (bioavailability) study, AB and BA directions; type: in vitro ADME, Homo sapiens; conditions: for reduction in concentration on the apical (donor) side / reduction in concentration on the basolateral (donor) side: 0 to 180 min; for TE (%) transport efficiency: after 180 min
Procedure, shortened: (§1)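 Grape skin extract in HBSS (15 or 22 mg/mL) applied to 21-day Caco-2 monolayers (TEER ≥300 Ω cm²) in AB and BA directions; acceptor samples quantified per polyphenol by HPLC-UV. Papp from steady-state flux over 1.12 cm², efflux ratio as Papp(BA)/Papp(AB), plus transport efficiency (C/C0).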

[2] = as above; type: in vitro ADME, Homo sapiens; conditions: human
Procedure, shortened: as §1

[3] = AB experiment, S1 (15 mg/mL GSE)
[4] = AB experiment, S2 (22 mg/mL GSE)
[5] = AB experiment, acceptor side, S1 (15 mg/mL GSE)
[6] = AB experiment, acceptor side, S2 (22 mg/mL GSE)
[7] = AB experiment, donor side, S1 (15 mg/mL GSE)
[8] = AB experiment, donor side, S2 (22 mg/mL GSE)
[9] = BA experiment, S1 (15 mg/mL GSE)
[10] = BA experiment, S2 (22 mg/mL GSE)
[11] = BA experiment, acceptor side, S1 (15 mg/mL GSE)
[12] = BA experiment, acceptor side, S2 (22 mg/mL GSE)
[13] = BA experiment, donor side, S1 (15 mg/mL GSE)
[14] = BA experiment, donor side, S2 (22 mg/mL GSE)

In the case of `O=C(/C=C/c1ccc(O)c(O)c1)O[C@@H](C(=O)O)[C@@H](O)C(=O)O` [CA, caftaric acid], the “reduction in concentration on the apical (donor) side” value [1, 3] is reported as 59 ± 4%, the “TE (%) transport efficiency” value [1, 3] is reported as 7 ± 1% and the “reduction in concentration on the apical (donor) side” value [1, 4] is reported as 44.1 ± 0.7%. The “TE (%) transport efficiency” value [1, 4] was 4.4 ± 0.5% and 4.4 ± 0.4%, the “Basolateral Side 75 min” value [1, 5] was 0.06 ± 0.01 ^b mg/L and the “Basolateral Side 90 min” value [1, 5] was 0.06 ± 0.01 ^b,c mg/L. The “Basolateral Side 115 min” value [1, 5] was 0.06 ± 0.01 ^b,c mg/L, the “Basolateral Side 180 min” value [1, 5] was 0.07 ± 0.01 ^c mg/L and the “Basolateral Side 75 min” value [1, 6] was 0.07 ± 0.01 ^b mg/L. For the same molecule, the “Basolateral Side 90 min” value [1, 6] was 0.07 ± 0.01 ^b,c mg/L, the “Basolateral Side 115 min” value [1, 6] was 0.08 ± 0.01 ^b mg/L and the “Basolateral Side 180 min” value [1, 6] was 0.08 ± 0.01 ^b mg/L. For the same molecule, the “Apical Side 0 min” value [1, 7] was 1.04 ± 0.08 mg/L and 1.04 ± 0.08 ^a mg/L, the “Apical Side 75 min” value [1, 7] was 0.84 ± 0.07 ^b mg/L and the “Apical Side 90 min” value [1, 7] was 0.67 ± 0.07 ^c mg/L. The “Apical Side 115 min” value [1, 7] was 0.54 ± 0.07 ^d mg/L, the “Apical Side 180 min” value [1, 7] was 0.43 ± 0.07 mg/L and 0.43 ± 0.07 ^d mg/L and the “Apical Side 0 min” value [1, 8] was 1.82 ± 0.03 mg/L and 1.82 ± 0.03 ^a mg/L. For the same molecule, the “Apical Side 75 min” value [1, 8] was 1.54 ± 0.03 ^b mg/L, the “Apical Side 90 min” value [1, 8] was 1.37 ± 0.02 ^c mg/L and the “Apical Side 115 min” value [1, 8] was 1.16 ± 0.02 ^d mg/L. For the same molecule, the “Apical Side 180 min” value [1, 8] was 1.01 ± 0.01 mg/L and 1.01 ± 0.01 ^c mg/L, the “detection at the acceptor side” value ([1]; AB experiments, basolateral side) was “detected” and the “reduction in concentration on the basolateral (donor) side” value [1, 9] was 43.5 ± 0.4%. For the same molecule, the “TE (%) transport efficiency” value [1, 9] was 11.2 ± 0.8%, the “reduction in concentration on the basolateral (donor) side” value [1, 10] was 22.6 ± 0.8% and the “TE (%) transport efficiency” value [1, 10] was 8.7 ± 0.9%. For the same molecule, the “Apical Side 75 min” value [1, 11] was 0.08 ± 0.01 ^b mg/L, the “Apical Side 90 min” value [1, 11] was 0.09 ± 0.01 ^c mg/L and the “Apical Side 115 min” value [1, 11] was 0.10 ± 0.01 ^d mg/L. For the same molecule, the “Apical Side 180 min” value [1, 11] was 0.12 ± 0.01 ^c mg/L, the “Apical Side 75 min” value [1, 12] was 0.08 ± 0.01 ^a,b mg/L and the “Apical Side 90 min” value [1, 12] was 0.10 ± 0.01 ^a,b,c mg/L. The “Apical Side 115 min” value [1, 12] was 0.11 ± 0.01 ^b,c mg/L, the “Apical Side 180 min” value [1, 12] was 0.12 ± 0.01 ^c mg/L and the “Basolateral Side 0 min” value [1, 13] was 1.04 ± 0.03 ^a mg/L. The “Basolateral Side 75 min” value [1, 13] was 0.91 ± 0.02 ^b mg/L, the “Basolateral Side 90 min” value [1, 13] was 0.80 ± 0.02 ^c mg/L and the “Basolateral Side 115 min” value [1, 13] was 0.70 ± 0.02 ^c,d mg/L. For the same molecule, the “Basolateral Side 180 min” value [1, 13] was 0.59 ± 0.02 ^c mg/L, the “Basolateral Side 0 min” value [1, 14] was 1.4 ± 0.1 ^a mg/L and the “Basolateral Side 75 min” value [1, 14] was 1.3 ± 0.1 ^b mg/L. For the same molecule, the “Basolateral Side 90 min” value [1, 14] was 1.23 ± 0.09 ^c mg/L, the “Basolateral Side 115 min” value [1, 14] was 1.15 ± 0.08 ^d mg/L and the “Basolateral Side 180 min” value [1, 14] was 1.08 ± 0.08 ^c mg/L. The efflux ratio at 180 min, 15 mg/mL ([2]; Caco-2, Papp (BA)/Papp (AB), S1 (15 mg/mL GSE), read-out: ER (efflux ratio)) was 1.3, the efflux ratio at 180 min, 22 mg/mL ([2]; Caco-2, Papp (BA)/Papp (AB), S2 (22 mg/mL GSE), read-out: ER (efflux ratio)) was 1.4 and the efflux ratio at 180 min ([2]; Caco-2, text statement, S1 and S2) was over 1. The Papp A→B at 180 min, 15 mg/mL ([2]; Caco-2, apical to basolateral, S1 (15 mg/mL GSE)) was 74 ± 3 ×10⁻⁶ cm/s, the Papp A→B at 180 min, 22 mg/mL ([2]; Caco-2, apical to basolateral, S2 (22 mg/mL GSE)) was 51 ± 2 ×10⁻⁶ cm/s and the Papp B→A at 180 min, 15 mg/mL ([2]; Caco-2, basolateral to apical, S1 (15 mg/mL GSE)) was 93 ± 7 ×10⁻⁶ cm/s. It also gave a Papp B→A at 180 min, 22 mg/mL ([2]; Caco-2, basolateral to apical, S2 (22 mg/mL GSE)) of 73 ± 8 ×10⁻⁶ cm/s.
